Measured values: patent US11932633B2, “KRas G12C inhibitors” (Mirati Therapeutics, Inc., priority 2018, dated 2024)
pIC50: −log10 of the molar value.

Columns and labels:
KRas G12C [1] = target: T1, KRas G12C (Homo sapiens, UniProt P01116, C118S/C51S/C80L/G12C); assay: KRas G12C Modification Assay (LCMS detection of covalent adduct); type: binding; conditions: 5 μM concentration for 3 hours
T1 construct: GDP-loaded K-Ras (1-169) G12C, C51S, C80L, C118S
Experimental: This Example illustrates that exemplary compounds of the present invention covalently bind to KRas G12C using a LCMS assay to detect a covalent adduct of the exemplary compound and KRAS G12C.
The protein concentration of GDP-loaded K-Ras (1-169) G12C, C51S, C80L, C118S and GTP-loaded K-Ras (1-169) G12C, C51S, C80L, C118S, Q61H was adjusted to 2 μM in K-Ras Assay Buffer (25 mM HEPES, 150 mM NaCl, 5 mM MgCl2, and 10 mM Octyl β-glucopyranoside at pH 7.5). A 10 μL aliquot of each protein solution was transferred to a 384 well microtiter plate. Initial compound stocks were generated at fifty times their desired final assay concentration in DMSO.
Exemplary compounds of formula (I) were diluted 25-fold into K-Ras Assay Buffer to a final of two times their final concentration. A 10 μL aliquot of each diluted compound solution was added to each of the protein solutions in the microtiter plate to initiate reaction. Typical final compound concentrations were 3.0, 5.0 and 25.0 μM. At each time point, the reactions were quenched with 20 μL of a 25 mM acetic acid solution. Usual assay endpoints were 15, 180 and 1440 minutes. Once all reactions were quenched, the plates were heat sealed and the samples were injected into a LC/MS system for data acquisition.
Data collection took place on an Agilent 6520 Q-TOF Accurate Mass Spectrometer. Samples were injected in their liquid phase onto a C-3 reverse phase column to remove assay buffer and prepare the samples for mass spectrometer. The proteins were eluted from the column using an acetonitrile gradient and fed directly into the mass analyzer. Initial raw data analysis took place in Agilent MassHunter software immediately post data acquisition.
Raw data analysis of the intact protein was exclusively a deconvolution of the multiple charge states of each protein in solution using a maximum entropy deconvolution provided in Mass Hunter. To minimize complexity, only the data over limited mass ranges were considered for analysis, with a minimum of one Dalton mass step intervals. The heights of all masses identified during raw data analysis were exported to be further analyzed in Spotfire® data analysis software.
Final data analysis was a multistep process in the Spotfire® data analysis software package. Briefly, each protein mass was calculated as a percent of the total signal of that sample, that percentage was normalized to the percentage of signal of the protein in the absence of reactive compounds. Those normalized signals were reported as normalized percent of control (POC). […] Key: N.D. is not determined.

KRas G12C [2] = target: T2, KRas G12C (Homo sapiens, UniProt P01116, G12C); assay: Cellular inhibition of KRas G12C measured by Phospho-ERK in NCI-11358 cells; type: cell-based; conditions: NCI-11358 cells (ATCC CRL-5807), 3 hours; read-out: Inhibition (IC50, pERK (Thr202/Tyr204) signal normalized with GAPDH)
T2 construct: NCI-11358 cells (ATCC CRL-5807) express KRas G12C; host or cells: NCI-H358
Experimental: The cellular inhibition of KRAs G12C by exemplary compounds of the present invention was determined by measuring the amount of a downstream marker of KRas activity, phosphorylated ERK (“Phospho-ERK”).
NCI-11358 cells (ATCC CRL-5807) express KRas G12C and were grown in RPMI medium supplemented with 10% fetal bovine serum, penicillin/streptomycin and 10 mM HEPES. Cells were plated in poly-D-Lysine coated 96-well plates at a concentration of 50,000 cells/well and allowed to attach for 8-12 hours. Diluted compounds were then added at a final concentration of 0.5% DMSO. After 3 hours, the medium was removed, 150 μL of 4% formaldehyde was added and the plates were incubated for 20 minutes. The plates were washed with PBS, and permeabilized using 150 μL of ice cold 100% methanol for 10 minutes. Non-specific antibody binding to the plates was blocked using 100 μL Licor Blocking Buffer (Li-Cor Biotechnology, Lincoln NE) for 1 hour at room temperature. Positive control samples and samples lacking cells were parallel processed with test samples as standards.
The amount Phospho-ERK was determined using an antibody specific for the phosphorylated form of ERK and compared to the amount of GAPDH. Primary antibodies used for detection were added as follows: Phospho-ERK (Cell Signaling cs9101) diluted 1:500 and GAPDH (Millipore MAB374) diluted 1:5000 in Licor block+0.05% Tween 20. The plates were incubated for 2 hours at room temperature. The plates were washed with PBS+0.05% Tween 20.
Secondary antibodies used to visualize primary antibodies were added as follows: Anti-rabbit-680 diluted 1:1000 and Anti-mouse-800 diluted 1:1000 in Licor Block+0.05% Tween 20 and incubated for 1 hour at room temperature. The plates were washed with PBS+0.05% Tween 20. A 100 μL aliquot of PBS was added to each well and the plates were read on a LICOR AERIUS plate reader.
The pERK (Thr202/Tyr204) signal was normalized with the GAPDH signal and percent of DMSO control values were calculated. IC50 values were generated using a 4 parameter fit of the dose response curve. Key: “A”: ≤1 μM, “B”>1 μM and N.D.=not determined.

SMILES	POC (normalized percent of control, covalent modification of KRas G12C) (KRas G12C [1]; 5 µM)	pIC50 (KRas G12C [2])	POC (normalized percent of control, covalent modification of KRas G12C) (KRas G12C [1])
C=CC(=O)N1CC(CN2C(=O)[C@H](CCN(C)C)Oc3cc(-c4c(C)ccc5[nH]ncc45)c(Cl)cc32)C1 (single isomer, unassigned) [Example 36]	27% of control	< 6.00	
C=CC(=O)N1CC(F)(CN2C(=O)COc3cc(-c4cc(O)cc5ccccc45)c(Cl)cc32)C1 [Example 13, 4-((1-acryloyl-3-fluoroazetidin-3-yl)methyl)-6-chloro-7-(3-hydroxynaphthalen-1-yl)-2H-benzo[b][1,4]oxazin-3(4H)-one]		≥ 6.00	93% of control
C=CC(=O)N1CC(CN2C(=O)C(CN3CCN(C)CC3)Oc3cc(-c4cc(O)cc5ccccc45)c(Cl)cc32)C1 (stereo not shown) [Example 8, 4-((1-acryloylazetidin-3-yl)methyl)-6-chloro-7-(3-hydroxynaphthalen-1-yl)-2-((4-methylpiperazin-1-yl)methyl)-2H-benzo[b][1,4]oxazin-3(4H)-one bis(2,2,2-trifluoroacetate)]		≥ 6.00	87% of control
C=CC(=O)N1CC(CN2C(=O)COc3cc(-c4cc(O)cc5ccccc45)c(Br)cc32)C1 [Example 31, 4-((1-acryloylazetidin-3-yl)methyl)-6-bromo-7-(3-hydroxynaphthalen-1-yl)-2H-benzo[b][1,4]oxazin-3(4H)-one]		≥ 6.00	88% of control
C=CC(=O)N1CC(CN2C(=O)COc3cc(-c4ccccc4C(F)(F)F)c(Cl)cc32)C1 [Example 37, 4-((1-acryloylazetidin-3-yl)methyl)-6-chloro-7-(2-(trifluoromethyl)phenyl)-2H-benzo[b][1,4]oxazin-3(4H)-one]		< 6.00	66% of control
C=CC(=O)N1CC(CN2C(=O)COc3cc(-c4cc(O)cc5ccccc45)c(C)cc32)C1 [Example 19, 4-((1-acryloylazetidin-3-yl)methyl)-7-(3-hydroxynaphthalen-1-yl)-6-methyl-2H-benzo[b][1,4]oxazin-3(4H)-one]		< 6.00	99% of control
C=CC(=O)N1CC(CN2C(=O)C(CN3CC[C@H](OC)C3)Oc3cc(-c4cc(O)cc5ccccc45)c(Cl)cc32)C1 (stereo partly drawn) [Example 30, 4-((1-acryloylazetidin-3-yl)methyl)-6-chloro-7-(3-hydroxynaphthalen-1-yl)-2-(((S)-3-methoxypyrrolidin-1-yl)methyl)-2H-benzo[b][1,4]oxazin-3(4H)-one]		≥ 6.00	93% of control

Second part, the compound after the results:

POC (normalized percent of control, covalent modification of KRas G12C) (KRas G12C [1]; 5 µM)	pIC50 (KRas G12C [2])	POC (normalized percent of control, covalent modification of KRas G12C) (KRas G12C [1])	SMILES
	< 6.00	94% of control	C=CC(=O)N1CC(CN2C(=O)COc3cc(-c4cc(O)cc5ccccc45)ccc32)C1 [Example 12, 4-((1-acryloylazetidin-3-yl)methyl)-7-(3-hydroxynaphthalen-1-yl)-2H-benzo[b][1,4]oxazin-3(4H)-one]
	< 6.00	100% of control	C=CC(=O)N1CC(CN2C(=O)COc3c2cc(Cl)c(-c2cc(O)cc4ccccc24)c3F)C1 [Example 16, 4-((1-acryloylazetidin-3-yl)methyl)-6-chloro-8-fluoro-7-(3-hydroxynaphthalen-1-yl)-2H-benzo[b][1,4]oxazin-3(4H)-one]
	≥ 6.00	93% of control	C=CC(=O)N1CC(CN2C(=O)C(CN3CC[C@@H](OC)C3)Oc3cc(-c4cc(O)cc5ccccc45)c(Cl)cc32)C1 (stereo partly drawn) [Example 28, 4-((1-acryloylazetidin-3-yl)methyl)-6-chloro-7-(3-hydroxynaphthalen-1-yl)-2-(((R)-3-methoxypyrrolidin-1-yl)methyl)-2H-benzo[b][1,4]oxazin-3(4H)-one]
	≥ 6.00	104% of control	C=CC(=O)N1CC(CN2C(=O)C(CN3CCCC3)Oc3cc(-c4cc(O)cc5ccccc45)c(Cl)cc32)C1 (stereo not shown) [Example 4, 4-((1-acryloylazetidin-3-yl)methyl)-6-chloro-7-(3-hydroxynaphthalen-1-yl)-2-(pyrrolidin-1-ylmethyl)-2H-benzo[b][1,4]oxazin-3(4H)-one]
	≥ 6.00	94% of control	C=CC(=O)N1CC(CN2C(=O)C(CN(C)C)Oc3cc(-c4cc(O)cc5ccccc45)c(Cl)cc32)C1 (stereo not shown) [Example 27, 4-((1-acryloylazetidin-3-yl)methyl)-6-chloro-2-((dimethylamino)methyl)-7-(3-hydroxynaphthalen-1-yl)-2H-benzo[b][1,4]oxazin-3(4H)-one]
	< 6.00	25% of control	C=CC(=O)N1CC(CN2C(=O)COc3cc(-c4onc5ccccc45)c(Cl)cc32)C1 [Example 29, 4-((1-acryloylazetidin-3-yl)methyl)-7-(benzo[c]isoxazol-3-yl)-6-chloro-2H-benzo[b][1,4]oxazin-3(4H)-one]
	≥ 6.00	90% of control	C=CC(=O)N1CC(CN2C(=O)[C@H](CCN(C)C)Oc3cc(-c4cc(O)cc5ccccc45)c(Cl)cc32)C1 [Example 26, (S)-4-((1-acryloylazetidin-3-yl)methyl)-6-chloro-2-(2-(dimethylamino)ethyl)-7-(3-hydroxynaphthalen-1-yl)-2H-benzo[b][1,4]oxazin-3(4H)-one]
	≥ 6.00	93% of control	C=CC(=O)N1CC(CN2C(=O)[C@H](CCN3CCOCC3)Oc3cc(-c4cc(O)cc5ccccc45)c(Cl)cc32)C1 [Example 34, (S)-4-((1-acryloylazetidin-3-yl)methyl)-6-chloro-7-(3-hydroxynaphthalen-1-yl)-2-(2-morpholinoethyl)-2H-benzo[b][1,4]oxazin-3(4H)-one]
	≥ 6.00	93% of control	C=CC(=O)N1CC(CN2C(=O)C(CCCN3CCOCC3)Oc3cc(-c4cc(O)cc5ccccc45)c(Cl)cc32)C1 (stereo not shown) [Example 25, 4-((1-acryloylazetidin-3-yl)methyl)-6-chloro-7-(3-hydroxynaphthalen-1-yl)-2-(3-morpholinopropyl)-2H-benzo[b][1,4]oxazin-3(4H)-one 2,2,2-trifluoroacetate]
86% of control	≥ 6.00		C=CC(=O)N1CC(CN2C(=O)[C@H](CCN(C)C)Oc3cc(-c4c(C)ccc5[nH]ncc45)c(Cl)cc32)C1 (single isomer, unassigned) [Example 35]
